From patent publication US11306036B2, “Composition containing a urease inhibitor” (RHODIA OPERATIONS, priority 2016, dated 2022)

Assay: Stability test: remaining NBPT content on treated granulated urea after storage (HPLC)
Type: physicochemical
Conditions: storage at 40° C., 50% humidity, up to 90 days
Description: The sample was prepared by mixing 6.00 g of TMBPA and 8.11 g of NBPT (98% purity) in 15.89 g of Augeo® SL 191 at a temperature of 25° C. The concentration of TMBPA was 20% and the concentration of NBPT was 26.5%. Then, the solution prepared was sprayed onto 50 g of granulated urea at a dosage of 0.3% of urea weight.
For stability tests, the treated granulated urea was kept at 40° C. and an atmospheric humidity of 50% for 30 days, 60 days and 90 days, respectively. The remaining NBPT content (expressed as percentages based on initial NBPT content) was measured by using HPLC analysis according to the standard procedure.

## CCCCNP(N)(N)=S [NBPT, N-(n-butyl)thiophosphoric acid triamide]
  stability of NBPT after application to the urea fertilizer (in words): poor stability
